Measured values: patent US20240279218A1 (Hoffmann-La Roche Inc., priority 2016, published 2024)

Tests used:
h-GABA-A α5β3γ2 [1] = target: T1, h-GABA-A α5β3γ2 (Homo sapiens (Human), UniProt P18507+P31644); assay: Two-electrode voltage clamp electrophysiology in Xenopus oocytes expressing GABAA receptors, modulation of GABA EC20 current; format: cell-based; conditions: Xenopus oocytes; for Efficacy (GABA) %: % modulation of GABA EC20 = 100*(Fold increase−1); for Fold increase h-GABA-A α5β3γ2 oocyte: GABA EC20, test compound at approx. 30 fold its Ki
In short: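 Values are % modulation of an EC20 GABA response, derived point by point from the ratio of compound-exposed versus control current traces (extremum taken, 100×(fold−1)). Recordings used oocytes injected with human α5, β3, γ2 mRNA, clamped at −80 mV at room temperature, at least 3 oocytes each.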

h-GABA-A α5β3γ2 [2] = target: T1, h-GABA-A α5β3γ2; assay: [3H]flumazenil competition binding assay, membranes of HEK293 cells expressing human GABAA receptors; conditions: displacement of [3H]flumazenil 0.5 nM, HEK293 cells expressing human receptors, mean of two determinations; read-out: Ki h-GABA-A α5β3γ2
In short: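 Membranes were prepared from HEK293 cells with transient human α5β3γ2 expression and assayed in Krebs-tris, pH 7.5. Bound radioactivity measured on filters by liquid scintillation.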

Efficacy (GABA) % (h-GABA-A α5β3γ2 [1]) [%] | Fold increase h-GABA-A α5β3γ2 oocyte (h-GABA-A α5β3γ2 [1]) | Ki (h-GABA-A α5β3γ2 [2]) [nM] | SMILES
37 | 1.37 | 11.2 | Cc1onc(-c2ccc(Cl)nc2)c1COc1ccc(C(=O)NC2CC3(COC3)C2)nn1 [Example 162, 6-((3-(6-chloropyridin-3-yl)-5-methylisoxazol-4-yl)methoxy)-N-(2-oxaspiro[3.3]heptan-6-yl)pyridazine-3-carboxamide]
98 | 1.98 | 8.6 | CO[C@H]1C[C@H](NC(=O)c2ccc(OCc3c(-c4ccc(C)nc4)noc3C)nn2)C1 [Example 163, trans-N-(3-methoxycyclobutyl)-6-((5-methyl-3-(6-methyl-3-pyridyl)isoxazol-4-yl)methoxy)pyridazine-3-carboxamide]
95 | 1.95 | 11.5 | CO[C@H]1C[C@@H](NC(=O)c2ccc(OCc3c(-c4ccc(C)nc4)noc3C)nn2)C1 [Example 164, cis-N-(3-methoxycyclobutyl)-6-((5-methyl-3-(6-methyl-3-pyridyl)isoxazol-4-yl)methoxy)pyridazine-3-carboxamide]
174 | 2.74 | 2.6 | Cc1ccc(-c2noc(C3CC3)c2COc2ccc(C(=O)NC3CCOCC3)nn2)nn1 [Example 165, 6-((5-cyclopropyl-3-(6-methylpyridazin-3-yl)isoxazol-4-yl)methoxy)-N-(tetrahydropyran-4-yl)pyridazine-3-carboxamide]
64 | 1.64 | 19.1 | Cc1ccc(-c2noc(C)c2COc2ccc(C(=O)NC3CC4(C3)CC(F)(F)C4)nn2)cn1 [Example 167, N-(6,6-difluorospiro[3.3]heptan-2-yl)-6-((5-methyl-3-(6-methylpyridin-3-yl)isoxazol-4-yl)methoxy)pyridazine-3-carboxamide]
102 | 2.02 | 32.4 | Cc1ccc(-c2noc(CF)c2COc2ccc(C(=O)NC3CCOCC3)nn2)cn1 [Example 168, 6-((5-(fluoromethyl)-3-(6-methylpyridin-3-yl)isoxazol-4-yl)methoxy)-N-(tetrahydropyran-4-yl)pyridazine-3-carboxamide]
66 | 1.66 | 18.9 | Cc1ccc(-c2noc(C)c2COc2ccc(C(=O)N[C@H]3C[C@@H](OCC(F)F)C3)nn2)cn1 [Example 169, cis-N-3-((2,2-difluoroethoxy)cyclobutyl)-6-((5-methyl-3-(6-methylpyridin-3-yl)isoxazol-4-yl)methoxy)pyridazine-3-carboxamide]
60 | 1.6 | 8.8 | Cc1ccc(-c2noc(C)c2COc2ccc(C(=O)N[C@H]3C[C@H](OCC(F)F)C3)nn2)cn1 [Example 170, trans-N-3-((2,2-difluoroethoxy)cyclobutyl)-6-((5-methyl-3-(6-methylpyridin-3-yl)isoxazol-4-yl)methoxy)pyridazine-3-carboxamide]
72 | 1.72 | 18.1 | CCO[C@H]1C[C@@H](NC(=O)c2ccc(OCc3c(-c4ccc(C)nc4)noc3C)nn2)C1 [Example 171, cis-N-(3-ethoxycyclobutyl)-6-((5-methyl-3-(6-methylpyridin-3-yl)isoxazol-4-yl)methoxy)pyridazine-3-carboxamide]
65 | 1.65 | 8.8 | CCO[C@H]1C[C@H](NC(=O)c2ccc(OCc3c(-c4ccc(C)nc4)noc3C)nn2)C1 [Example 172, trans-N-(3-ethoxycyclobutyl)-6-((5-methyl-3-(6-methylpyridin-3-yl)isoxazol-4-yl)methoxy)pyridazine-3-carboxamide]
68 | 1.68 | 15.6 | Cc1ccc(-c2noc(C)c2COc2ccc(C(=O)N[C@H]3C[C@@H](OC(F)F)C3)nn2)cn1 [Example 173, cis-N-(3-(difluoromethoxy)cyclobutyl)-6-((5-methyl-3-(6-methylpyridin-3-yl)isoxazol-4-yl)methoxy)pyridazine-3-carboxamide]
55 | 1.55 | 8.8 | Cc1ccc(-c2noc(C)c2COc2ccc(C(=O)N[C@H]3C[C@H](OC(F)F)C3)nn2)cn1 [Example 174, trans-N-(3-(difluoromethoxy)cyclobutyl)-6-((5-methyl-3-(6-methylpyridin-3-yl)isoxazol-4-yl)methoxy)pyridazine-3-carboxamide]
82 | 1.82 | 10.1 | Cc1ccc(-c2noc(C)c2COc2ccc(C(=O)N[C@H]3C[C@H](OC4CC4)C3)nn2)cn1 [Example 175, trans-N-(3-cyclopropoxycyclobutyl)-6-((5-methyl-3-(6-methylpyridin-3-yl)isoxazol-4-yl)methoxy)pyridazine-3-carboxamide]
64 | 1.64 | 12.7 | Cc1ccc(-c2noc(C)c2COc2ccc(C(=O)N[C@H]3C[C@@H](OC4CC4)C3)nn2)cn1 [Example 176, cis-N-(3-cyclopropoxycyclobutyl)-6-((5-methyl-3-(6-methylpyridin-3-yl)isoxazol-4-yl)methoxy)pyridazine-3-carboxamide]
109 | 2.09 | 39.7 | CC1(NC(=O)c2ccc(OCc3c(-c4ccc(Cl)nc4)noc3C3CC3)nn2)COC1 [Example 177]
73 | 1.73 | 42.9 | O=C(NC1CC2(COC2)C1)c1ccc(OCc2c(-c3ccc(Cl)nc3)noc2C2CC2)nn1 [Example 178, 6-((3-(6-chloropyridin-3-yl)-5-cyclopropylisoxazol-4-yl)methoxy)-N-(2-oxaspiro[3.3]heptan-6-yl)pyridazine-3-carboxamide]
173 | 2.73 | 32.6 | Cc1ccc(-c2noc(C3CC3)c2COc2ccc(C(=O)NC3(C)COC3)nn2)cn1 [Example 180]
147 | 2.47 | 68 | Cc1ccc(-c2noc(C3CC3)c2COc2ccc(C(=O)NC3CC4(COC4)C3)nn2)cn1 [Example 181, 6-((5-cyclopropyl-3-(6-methylpyridin-3-yl)isoxazol-4-yl)methoxy)-N-(2-oxaspiro[3.3]heptan-6-yl)pyridazine-3-carboxamide]
141 | 2.41 | 59.6 | Cc1ccc(-c2noc(C3CC3)c2COc2ccc(C(=O)N[C@H]3CCOC3)nn2)cn1 [Example 182]
213 | 3.13 | 56.7 | Cc1ccc(-c2noc(C3CC3)c2COc2ccc(C(=O)NC3CCOCC3)nn2)cn1 [Example 183, 6-((5-cyclopropyl-3-(6-methylpyridin-3-yl)isoxazol-4-yl)methoxy)-N-(tetrahydropyran-4-yl)pyridazine-3-carboxamide]
96 | 1.96 | 51.2 | Cc1ccc(-c2noc(CF)c2COc2ccc(C(=O)NC3(C(F)(F)F)CC3)nn2)cn1 [Example 184, 6-((5-(fluoromethyl)-3-(6-methylpyridin-3-yl)isoxazol-4-yl)methoxy)-N-(1-(trifluoromethyl)cyclopropyl)pyridazine-3-carboxamide]
124 | 2.24 | 70.7 | Cc1onc(-c2ccc(C(F)(F)F)nc2)c1COc1ccc(C(=O)NC2CCOCC2)nn1 [Example 185, 6-((5-methyl-3-(6-(trifluoromethyl)pyridin-3-yl)isoxazol-4-yl)methoxy)-N-(tetrahydropyran-4-yl)pyridazine-3-carboxamide]
72 | 1.72 | 16.6 | Cc1ccc(-c2noc(C)c2COc2ccc(C(=O)N[C@H]3CC4CCC3O4)nn2)cn1 (stereo partly drawn) [Example 186, N-((2S)-7-oxabicyclo[2.2.1]heptan-2-yl)-6-((5-methyl-3-(6-methylpyridin-3-yl)isoxazol-4-yl)methoxy)pyridazine-3-carboxamide]
63 | 1.63 | 12.7 | CCO[C@@H]1CC[C@@H](NC(=O)c2ccc(OCc3c(-c4ccc(C)nc4)noc3C)nn2)C1 [Example 190, N-((1R,3R)-3-ethoxycyclopentyl)-6-((5-methyl-3-(6-methylpyridin-3-yl)isoxazol-4-yl)methoxy)pyridazine-3-carboxamide]
60 | 1.6 | 11.2 | Cc1ccc(-c2noc(C)c2COc2ccc(C(=O)N[C@@H]3CC[C@@H](OCC(F)F)C3)nn2)cn1 [Example 191, N-((1R,3R)-3-(2,2-difluoroethoxy)cyclopentyl)-6-((5-methyl-3-(6-methylpyridin-3-yl)isoxazol-4-yl)methoxy)pyridazine-3-carboxamide]
56 | 1.56 | 3 | Cc1ccc(-c2noc(CF)c2COc2ccc(C(=O)NC3CCOCC3)nn2)nn1 [Example 192, 6-((5-(fluoromethyl)-3-(6-methylpyridazin-3-yl)isoxazol-4-yl)methoxy)-N-(tetrahydropyran-4-yl)pyridazine-3-carboxamide]
